Results taken from patent publication US20230201172A1, “METHODS OF TREATING CFTR RELATED DISEASES AND DISORDERS” (ARIEL PRECISION MEDICINE, INC., priority 2020, published 2023).
Read-outs that look alike come from different tables or passages of the source.

How the values were obtained:
F508del-CFTR = target: T1, F508del-CFTR (Homo sapiens, UniProt P13569, DEL508-508); test: Ussing chamber electrophysiology, acute potentiation of F508del-CFTR current in corrected CF-hBE cells; assay type: cell-based; settings: for Maximum efficacy (Emax), relative efficacy: normalized to response of 1 μM ivacaftor (=1.0), cells treated with the three correctors
T1 construct: endogenous in cells; host or cells: CF-hBE (primary human bronchial epithelial cells from CF donors)
Method: Methods: […] Electrophysiology assays were conducted in an Ussing chamber in which corrected cells were treated with ascending concentrations of […] (0.001-10 μM) or ivacaftor (0.0003-1.0 μM). […] FIG. 1 legend: Ussing assay dose-response curves for potentiation of F508del-CFTR current following acute addition of ivacaftor (0.0003-1.0 μM, black circles) and […] (0.001-10 μM, blue squares labeled FDL176). Cells were corrected with lumacaftor (left), tezacaftor (middle), or FDL169 (right), each at 3 μM. For each corrector treatment group, dose response data for ivacaftor and […] were normalized to the response following activation with 1 μM ivacaftor (with matched corrector). Error bars represent SEM. CF-hBE=cystic fibrosis primary human bronchial epithelial cells; CFTR=cystic fibrosis transmembrane conductance regulator; SEM=standard error of the mean.

G551D variant = G551D variant (Homo sapiens, UniProt P13569, G551D); test: Potentiator EC50 for the G551D CFTR variant; assay type: cell-based
[1] = Total plasma Cmin at steady state, human dose; assay type: in vivo
[2] = NOAEL exposure in rats vs human dose
[3] = NOAEL exposure in dogs vs human dose
[4] = cystic fibrosis patients with comorbid pancreatic diseases (Carrion et al. 2018); cited from earlier work

T1 sequence (P13569 with tags, fused parts or gaps DEL508-508): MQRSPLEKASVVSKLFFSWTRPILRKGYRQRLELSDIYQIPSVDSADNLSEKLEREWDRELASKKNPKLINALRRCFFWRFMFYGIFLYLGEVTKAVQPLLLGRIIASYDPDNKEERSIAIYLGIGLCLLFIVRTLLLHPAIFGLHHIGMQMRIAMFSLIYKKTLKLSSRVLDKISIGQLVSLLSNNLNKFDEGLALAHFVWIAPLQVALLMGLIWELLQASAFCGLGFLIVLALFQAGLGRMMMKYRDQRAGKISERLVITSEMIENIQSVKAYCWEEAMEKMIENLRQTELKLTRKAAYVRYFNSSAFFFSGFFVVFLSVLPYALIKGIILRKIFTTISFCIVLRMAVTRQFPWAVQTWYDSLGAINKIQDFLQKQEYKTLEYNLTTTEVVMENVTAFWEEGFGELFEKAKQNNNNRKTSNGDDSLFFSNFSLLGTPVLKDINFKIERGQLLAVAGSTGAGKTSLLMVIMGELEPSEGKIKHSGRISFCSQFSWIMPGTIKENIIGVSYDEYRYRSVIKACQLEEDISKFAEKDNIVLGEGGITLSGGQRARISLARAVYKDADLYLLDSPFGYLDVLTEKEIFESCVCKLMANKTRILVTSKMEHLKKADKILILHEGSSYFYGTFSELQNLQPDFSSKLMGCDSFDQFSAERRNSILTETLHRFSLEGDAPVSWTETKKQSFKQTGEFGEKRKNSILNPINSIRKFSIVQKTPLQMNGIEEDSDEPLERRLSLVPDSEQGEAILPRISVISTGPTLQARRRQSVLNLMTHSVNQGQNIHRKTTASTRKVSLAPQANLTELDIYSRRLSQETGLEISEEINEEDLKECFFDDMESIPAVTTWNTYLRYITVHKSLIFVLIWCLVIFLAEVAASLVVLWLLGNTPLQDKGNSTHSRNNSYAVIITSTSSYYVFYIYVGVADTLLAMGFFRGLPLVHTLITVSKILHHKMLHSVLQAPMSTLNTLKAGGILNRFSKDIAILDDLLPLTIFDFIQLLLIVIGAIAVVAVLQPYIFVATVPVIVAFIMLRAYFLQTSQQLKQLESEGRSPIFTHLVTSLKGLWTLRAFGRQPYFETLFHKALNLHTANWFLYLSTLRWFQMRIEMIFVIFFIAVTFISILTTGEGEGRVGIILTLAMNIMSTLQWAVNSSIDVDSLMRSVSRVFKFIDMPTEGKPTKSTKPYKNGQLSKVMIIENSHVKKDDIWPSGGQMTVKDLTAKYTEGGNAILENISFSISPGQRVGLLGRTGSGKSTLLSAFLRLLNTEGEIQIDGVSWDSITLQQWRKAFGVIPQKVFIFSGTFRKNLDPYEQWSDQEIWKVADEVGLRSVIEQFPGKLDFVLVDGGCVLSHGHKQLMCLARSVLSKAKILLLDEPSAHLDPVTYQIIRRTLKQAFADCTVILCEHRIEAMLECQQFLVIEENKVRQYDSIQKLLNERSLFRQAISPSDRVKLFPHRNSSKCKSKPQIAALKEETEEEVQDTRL
G551D variant, sequence (P13569 whole entry G551D): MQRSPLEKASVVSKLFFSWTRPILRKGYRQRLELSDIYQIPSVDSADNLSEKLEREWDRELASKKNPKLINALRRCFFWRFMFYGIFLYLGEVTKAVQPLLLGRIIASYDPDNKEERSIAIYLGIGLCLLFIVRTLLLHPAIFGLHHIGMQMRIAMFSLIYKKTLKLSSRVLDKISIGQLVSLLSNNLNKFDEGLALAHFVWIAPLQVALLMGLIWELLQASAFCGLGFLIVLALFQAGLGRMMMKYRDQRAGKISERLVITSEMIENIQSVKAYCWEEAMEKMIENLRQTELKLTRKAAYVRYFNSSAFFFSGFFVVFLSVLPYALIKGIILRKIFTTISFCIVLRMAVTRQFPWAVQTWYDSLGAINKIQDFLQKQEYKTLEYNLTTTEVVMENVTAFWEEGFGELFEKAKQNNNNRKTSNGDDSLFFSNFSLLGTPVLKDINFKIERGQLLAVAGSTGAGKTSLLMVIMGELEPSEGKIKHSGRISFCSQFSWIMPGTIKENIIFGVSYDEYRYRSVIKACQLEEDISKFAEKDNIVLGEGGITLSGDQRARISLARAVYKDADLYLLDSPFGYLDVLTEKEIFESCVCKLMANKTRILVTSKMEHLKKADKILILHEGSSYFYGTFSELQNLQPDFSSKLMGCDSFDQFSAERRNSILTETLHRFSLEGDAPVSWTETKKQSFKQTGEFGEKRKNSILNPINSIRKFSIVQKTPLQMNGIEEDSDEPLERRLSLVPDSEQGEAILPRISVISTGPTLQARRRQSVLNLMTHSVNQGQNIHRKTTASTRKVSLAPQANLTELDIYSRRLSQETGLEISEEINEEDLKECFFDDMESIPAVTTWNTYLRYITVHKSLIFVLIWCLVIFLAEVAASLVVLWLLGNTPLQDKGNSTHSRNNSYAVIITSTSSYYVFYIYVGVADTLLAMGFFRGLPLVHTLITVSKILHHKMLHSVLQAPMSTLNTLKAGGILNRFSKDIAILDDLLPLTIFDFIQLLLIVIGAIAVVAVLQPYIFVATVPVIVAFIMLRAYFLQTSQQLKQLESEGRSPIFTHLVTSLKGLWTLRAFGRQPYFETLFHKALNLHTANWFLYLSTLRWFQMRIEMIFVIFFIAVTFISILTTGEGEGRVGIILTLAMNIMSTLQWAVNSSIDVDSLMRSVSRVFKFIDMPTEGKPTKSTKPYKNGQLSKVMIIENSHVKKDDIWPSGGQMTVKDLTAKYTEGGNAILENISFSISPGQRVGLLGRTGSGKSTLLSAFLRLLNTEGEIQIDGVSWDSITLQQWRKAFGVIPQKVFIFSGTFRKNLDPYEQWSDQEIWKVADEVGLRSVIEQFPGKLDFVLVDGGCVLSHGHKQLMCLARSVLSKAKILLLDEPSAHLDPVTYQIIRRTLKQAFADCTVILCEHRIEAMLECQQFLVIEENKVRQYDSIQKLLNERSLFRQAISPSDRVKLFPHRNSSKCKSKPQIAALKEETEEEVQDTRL

| EC50 (F508del-CFTR; corrector treated CF-hBE cells (lumacaftor, tezacaftor, FDL169), acute addition, read-out: EC50 range, potentiation of F508del-CFTR current) | SMILES | EC50 (F508del-CFTR; CF-hBE cells corrected with FDL169 3 μM, acute addition (<1 hour), read-out: EC50, potentiation of F508del-CFTR current) | EC50 (F508del-CFTR; CF-hBE cells corrected with lumacaftor 3 μM, acute addition (<1 hour), read-out: EC50, potentiation of F508del-CFTR current) | EC50 (F508del-CFTR; CF-hBE cells corrected with tezacaftor 3 μM, acute addition (<1 hour), read-out: EC50, potentiation of F508del-CFTR current) | Maximum efficacy (Emax), relative efficacy (F508del-CFTR) | EC50 (G551D variant) | Total plasma Cmin at steady state ([1]; 30 mg dose) | Total plasma Cmin at steady state ([1]; 50 mg dose) | Safety margin of NOAEL exposure over a 50 mg human dose [2] | Safety margin of NOAEL exposure over a 50 mg human dose [3] | Recurrence rate of pancreatitis [4] |
| --- | --- | --- | --- | --- | --- | --- | --- | --- | --- | --- | --- |
|  | Cl.O=S(=O)(c1ccccc1)c1ccc2nc(NCc3ccc(-c4ccccn4)cc3)nn2c1 [X0176, 6-(phenylsulfonyl)-N-(4-(pyridin-2-yl)benzyl)-[1,2,4]triazolo[1,5-a]pyridin-2-amine hydrochloride] | 204 ± 24.4 nM | 133 ± 18.1 nM | 202 ± 44.6 nM | 1.0 | 2600 nM | 2180 nM | 3170 nM | 3.4 fold | 1.1 fold |  |
| 3.6 to 9.1 nM | CC(C)(C)c1cc(C(C)(C)C)c(NC(=O)c2c[nH]c3ccccc3c2=O)cc1O [ivacaftor, reference compound] |  |  |  | 1.0 |  |  |  |  |  | decreased recurrence rate of pancreatitis |
